Assays:
[1] = test system: Aiolos; assay: Aiolos protein inhibition in myeloma cells; assay type: cell-based
[2] = test system: Aiolos; assay: Aiolos Western blotting of primary human T cells; assay type: cell-based; conditions: 6 hours and 24 hours
Method: (§1) Primary T cells from up to 3 donors were isolated from human leukocytes (Blood Center of New Jersey, East Orange, N.J.) by centrifugation through FICOLL® following the ROSETETTESEP™ protocol (Stem Cell Technologies, Vancouver, Canada). Purified T cells were stimulated with anti-CD3 Antibody (Ebioscience, San Diego, Calif.), drug treated for six hours, harvested and Aiolos and Ikaros protein expression was determined by immunoblot analysis using antibodies against Aiolos (Santa Cruz, Dallas, Tex.) and Ikaros (Millipore, Billerica, Mass.) with our without blocking peptide.

[3] = test system: Aiolos; assay: Aiolos protein level in B cells from CLL patients and healthy subjects; assay type: cell-based, human; conditions: B cells obtained from CLL patients as well as healthy subjects
[4] = test system: Aiolos; assay: Aiolos expression by western blot at 6 hours (FIG. 37); assay type: cell-based; conditions: 6 hours after the treatment, with varying degrees
[5] = test system: Ikaros; assay: Ikaros expression by western blot at 6 hours (FIG. 37); assay type: cell-based; conditions: 6 hours after the treatment, with varying degrees
[6] = test system: Aiolos; assay: Aiolos expression in drug treated T cells (FIG. 48); assay type: cell-based, human; conditions: all of the respective cells tested (FIGS. 47, 48)
Method: as §1

[7] = test system: Aiolos; assay: B-CLL / CD40L fibroblast co-culture, Aiolos (Western blot, flow cytometry); assay type: cell-based, human; conditions: for Aiolos protein level: B-CLL co-culture, 72 hours, 10 μM lenalidomide, 1 μM pomalidomide, 0.1 μM Compound A, 0.1 μM Compound B, 3 patient samples; for Dose dependence of Aiolos inhibition by flow cytometry: three different B-CLL patient co-culture samples
Method: (§2) CD40L expressing fibroblasts (gift from Angela Piperno, Rockefeller University, NY, N.Y.) were maintained in DMEM medium supplied with 20% FBS. Prior to co-cultures CD40L fibroblasts were pre-treated for 3 hours with 10 μg/mL Mytomicin C followed by a wash with PBS and Accutase dissociation. Cells were then re-plated at a density of 6×10^5 cells per well (24 well per plate format) and grown overnight to allow formation of monolayer. […] For long term cultures, half of the culture media was renewed every three days. Alternatively, for other assays, B-CLL cells were co-cultured on CD40L without being pre-stained.
(§3) Effects of compound treatment on CRBN, Aiolos, p21^WAF-1 and IRF4 were evaluated in 3 different patient cell samples (FIG. 56A).

[8] = test system: IRF4; assay: B-CLL / CD40L fibroblast co-culture Western blot, IRF4; assay type: cell-based, human; conditions: 72 hours, 10 μM lenalidomide, 1 μM pomalidomide, 0.1 μM Compound A, 0.1 μM Compound B, 3 patient samples
Method: (§4) Human primary B-CLL cells viably frozen from patient samples were obtained from AllCells (Emeryville, Calif., USA) and maintained in Roswell Park Memorial Institute (RPMI)-1640 medium with 10% fetal bovine serum (FBS) (Invitrogen, Carlsbad, Calif.). CD40L expressing fibroblasts (gift from Angela Piperno, Rockefeller University, NY, N.Y.) were maintained in DMEM medium supplied with 20% FBS. Prior to co-cultures CD40L fibroblasts were pre-treated for 3 hours with 10 μg/mL Mytomicin C followed by a wash with PBS and Accutase dissociation. Cells were then re-plated at a density of 6×10^5 cells per well (24 well per plate format) and grown overnight to allow formation of monolayer. Defrosted viable primary B-CLL patient cells were pre-stained with CFSE reagent (Vibrant CFDA SE Cell Tracer Kit, Invitrogen, Carlsbad, Calif., USA) according to a manufacturer's supplied protocol and plated at 0.8-1×10^6 cells per well on the pre-formed monolayer of CD40L fibroblasts in RPMI 1640 medium supplemented with 10% FBS, 5 ng/mL rh-IL4 and 10 ng/mL rh-IL10 (Peprotech, USA). For long term cultures, half of the culture media was renewed every three days. Alternatively, for other assays, B-CLL cells were co-cultured on CD40L without being pre-stained.
(§5) Effects of compound treatment on CRBN, Aiolos, p21^WAF-1 and IRF4 were evaluated in 3 different patient cell samples (FIG. 56A). The three patient samples show similar expression levels of CRBN protein (compare lane 1 of the 3 Western blots in FIG. 56A; samples were run in same membrane even though gels are presented as 3 independent pictures in the figure). […] The effects on p21, IRF4 and Aiolos are consistent with the cell cycle arrest and inhibition of proliferation observed with compound treatment.

[9] = test system: p21^WAF-1; assay: B-CLL / CD40L fibroblast co-culture Western blot, p21^WAF-1; assay type: cell-based, human; conditions: 72 hours, 10 μM lenalidomide, 1 μM pomalidomide, 0.1 μM Compound A, 0.1 μM Compound B, 3 patient samples
Method: as §4, §5

[10] = molecular target: CRBN (Homo sapiens, UniProt Q96SW2); assay: B-CLL / CD40L fibroblast co-culture Western blot, CRBN; assay type: cell-based; set-up: endogenous in cells; host or cells: primary B-CLL patient cells co-cultured with CD40L-expressing fibroblasts; conditions: 72 hours, 10 μM lenalidomide, 1 μM pomalidomide, 0.1 μM Compound A, 0.1 μM Compound B, 3 patient samples
CRBN, sequence (Q96SW2 whole entry): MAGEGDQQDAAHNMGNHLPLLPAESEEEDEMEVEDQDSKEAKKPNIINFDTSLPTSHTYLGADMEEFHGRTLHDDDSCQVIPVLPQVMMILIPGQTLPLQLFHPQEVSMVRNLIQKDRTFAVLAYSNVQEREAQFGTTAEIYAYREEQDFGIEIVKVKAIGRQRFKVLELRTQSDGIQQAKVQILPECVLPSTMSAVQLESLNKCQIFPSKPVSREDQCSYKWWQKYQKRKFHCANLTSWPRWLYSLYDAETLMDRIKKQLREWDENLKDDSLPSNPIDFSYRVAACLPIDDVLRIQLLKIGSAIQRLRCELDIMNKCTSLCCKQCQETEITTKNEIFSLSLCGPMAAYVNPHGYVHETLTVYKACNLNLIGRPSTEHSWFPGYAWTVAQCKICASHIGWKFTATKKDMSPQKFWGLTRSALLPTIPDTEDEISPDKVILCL
Method: as §2, §3

Compound	Aiolos expression [1]	Potency in Aiolos protein inhibition relative to Len [1]	Aiolos expression [2]	Aiolos expression [3]	Aiolos expression [4]	Ikaros expression [5]	Aiolos expression [6]	Aiolos protein level [7]	Dose dependence of Aiolos inhibition by flow cytometry [7]	IRF4 protein level [8]	p21^WAF-1 protein level [9]	CRBN protein levels [10]
Cc1nc2cccc(N)c2c(=O)n1C1CCC(=O)NC1=O (stereo not shown) [Compound A, 3-(5-amino-2-methyl-4-oxo-4H-quinazolin-3-yl)-piperidine-2,6-dione]	showed inhibitory effect on Aiolos expression	higher potency than Len	showed an inhibitory effect on Aiolos expression	inhibit Aiolos expression	inhibited the expression of both Aiolos and Ikaros	inhibited the expression of both Aiolos and Ikaros	reduced the expression of Aiolos and Ikaros	down regulated	dose-dependent inhibition of Aiolos	down regulated	upregulated	do not affect CRBN protein levels or in some samples induce slight increased of CRBN levels
O=C1CC[C@H](N2Cc3c(OCc4ccc(CN5CCOCC5)cc4)cccc3C2=O)C(=O)N1 [Compound B, 3-(4-((4-(morpholinomethyl)benzyl)oxy)-1-oxoisoindolin-2-yl)piperidine-2,6-dione]	showed inhibitory effect on Aiolos expression	higher potency than Len	showed an inhibitory effect on Aiolos expression	inhibit Aiolos expression	inhibited the expression of both Aiolos and Ikaros	inhibited the expression of both Aiolos and Ikaros	reduced the expression of Aiolos and Ikaros	down regulated	dose-dependent inhibition of Aiolos	down regulated	upregulated	do not affect CRBN protein levels or in some samples induce slight increased of CRBN levels
Nc1cccc2c1CN(C1CCC(=O)NC1=O)C2=O (stereo not shown) [lenalidomide]										down regulated	upregulated	
Nc1cccc2c1C(=O)N(C1CCC(=O)NC1=O)C2=O (stereo not shown) [pomalidomide, reference compound]	showed inhibitory effect on Aiolos expression	higher potency than Len	showed an inhibitory effect on Aiolos expression	inhibit Aiolos expression	inhibited the expression of both Aiolos and Ikaros	inhibited the expression of both Aiolos and Ikaros		down regulated	dose-dependent inhibition of Aiolos	down regulated	upregulated	do not affect CRBN protein levels or in some samples induce slight increased of CRBN levels

Source: US9857359B2, “Methods for determining drug efficacy using cereblon-associated proteins” (CELGENE CORPORATION, priority 2012, dated 2018)
